From patent US20150203517A1, “Prodrugs of Compounds that Enhance Antifungal Activity and Compositions of Said Prodrugs” (priority 2014, published 2015)
Structures can show the parent of a compound that is named as a salt. Where two headings read alike, the source gives them in different places.

Experiment: Saline solubility at 1.00 mg/mL and 0.50 mg/mL (with pH by indicator paper)
Assay type: physicochemical
Settings: for solubility at 1 h: saline or isotonic, thermodynamic from solid, centrifuged, soluble = no precipitate formed; for pH at 1.00 mg/mL of MGCD290 in saline: final concentration of hydroxamate 1 1.00 mg/mL, pH indicator paper
Experimental: Assays were performed to determine the saline solubility at 1.00 and 0.50 mg/ml and the stability of certain of the prodrug compounds of Examples 1-111. The following procedures were used.
Step 1. Sample preparation. An amount of the compound sample was precisely weighed to correspond to around 5 mg of the hydroxamate of compound 1, taking into account the mass of the leaving group and the salt factor if applicable. The sample was placed in a 16×125 mm glass screw cap tube. Saline was added so that the final concentration of hydroxamate 1 was 1.00 mg/mL. The pH was measured with pH indicator paper. The tube was shaken for 1 hour on a Vortex apparatus then centrifuged at 3000 rpm (1800 rcf) for 5 minutes. If the compound example was soluble (no precipitate formed) the procedure continued to step 2. If a precipitate formed then the sample was diluted with saline so that the final concentration of the hydroxamate of compound 1 was 0.50 mg/mL, and the shaking and centrifuging steps were repeated. If the compound example was soluble (no precipitate formed) the procedure continued to step 2. If a precipitate formed the sample was discarded. Step 2. HPLC analysis. A 500 μL aliquot of a sample solution prepared according to Step 1 was taken up into a 1.5 mL injection vial to which was added 500 μL of saline. The vial was shaken on a Vortex apparatus, injected into the HPLC instrument (UV detection, zero time point) and the retention time and purity of the sample compound were determined. The injection was repeated after 6 hours and 24 hours, and a comparison was made of the retention time, peak areas and level of degradation (if any) using the GDADI50 method.

[1] = 0.50 mg/mL as hydroxamate 1, shaken 1 hour, read-out: Soluble at 0.5 mg/mL of MGCD290 (Y/N)
[2] = 1.00 mg/mL as hydroxamate 1, shaken 1 hour, read-out: Soluble at 1.00 mg/mL of MGCD290 (Y/N)

Structure (SMILES) | solubility at 1 h [1] [µg/mL] | solubility at 1 h [2] [µg/mL] | pH at 1.00 mg/mL of MGCD290 in saline
O=C(Cc1ccc(CCCCc2ccccc2)cc1)NOC(=O)CCC1CCCC1 [Compound 51] | < 500 | < 1000 | –
CC(=O)ONC(=O)Cc1ccc(CCCCc2ccccc2)cc1 [Compound 52D] | < 500 | < 1000 | –
COCCC(=O)NC[C@H](NC(=O)CCOC)C(=O)NCCC(=O)ONC(=O)Cc1ccc(CCCCc2ccccc2)cc1 [Compound 144] | < 500 | < 1000 | 4.5-5
COCCOCCOCCOCCOCC(=O)N1CCN(C(=O)ONC(=O)Cc2ccc(CCCCc3ccccc3)cc2)CC1 [Compound 81] | – | > 1000 | 4.5-5
COCCOCCOCCOCCOCCOCC(=O)N1CCN(C(=O)ONC(=O)Cc2ccc(CCCCc3ccccc3)cc2)CC1 [Compound 82] | – | > 1000 | 4.5-5
COCCOCCOCCOCCOCCOCC(=O)NCC1(C(=O)ONC(=O)Cc2ccc(CCCCc3ccccc3)cc2)CC1 [Compound 57] | < 500 | < 1000 | 4.5-5
COCCOCC(=O)NC[C@H](NC(=O)COCCOC)C(=O)NCCC(=O)ONC(=O)Cc1ccc(CCCCc2ccccc2)cc1 [Compound 145] | < 500 | < 1000 | 4.5-5
COCCOCCOCCOCC(=O)N1CCC(CC(=O)ONC(=O)Cc2ccc(CCCCc3ccccc3)cc2)CC1 [Compound 116] | < 500 | < 1000 | 4.5-5
CCOC(=O)CNC(=O)ONC(=O)Cc1ccc(CCCCc2ccccc2)cc1 [Compound 75] | < 500 | < 1000 | 4.5-5
COCCOCCOCC(=O)NC[C@H](NC(=O)COCCOCCOC)C(=O)NCCC(=O)ONC(=O)Cc1ccc(CCCCc2ccccc2)cc1 [Compound 143] | < 500 | < 1000 | 4.5-5
CCCC(CCC)C(=O)ONC(=O)Cc1ccc(CCCCc2ccccc2)cc1 [Compound 50, 2-(4-(4-Phenylbutyl)phenyl)-N-(2-propylpentanoyloxyl)acetamide] | < 500 | < 1000 | –
O=C(Cc1ccc(CCCCc2ccccc2)cc1)NOC(=O)CC1CC1 [Compound 52C] | < 500 | < 1000 | –
Cl.O=C(Cc1ccc(CCCCc2ccccc2)cc1)NOC(=O)COC1CCNCC1 [Compound 125, 2-(4-(4-phenylbutyl)phenyl)-N-(2-(piperidin-4-yloxy)acetoxy)acetamide hydrochloride] | < 500 | < 1000 | 4.5-5
COCCOCC(=O)NCC[C@H](NC(=O)COCCOC)C(=O)NCCC(=O)ONC(=O)Cc1ccc(CCCCc2ccccc2)cc1 [Compound 163] | < 500 | < 1000 | 4.5-5
COCCC(=O)NCCCC[C@H](NC(=O)CCOC)C(=O)NCCC(=O)ONC(=O)Cc1ccc(CCCCc2ccccc2)cc1 [Compound 148] | < 500 | < 1000 | 4.5-5
COCCC(=O)NCCC[C@H](NC(=O)CCOC)C(=O)NCCC(=O)ONC(=O)Cc1ccc(CCCCc2ccccc2)cc1 [Compound 156] | < 500 | < 1000 | 4.5-5
COCCOCCOCC(=O)N1CCC(CCC(=O)ONC(=O)Cc2ccc(CCCCc3ccccc3)cc2)CC1 [Compound 112] | < 500 | < 1000 | 5.5-6
COCCOCC(=O)NCCC[C@H](NC(=O)COCCOC)C(=O)NCCC(=O)ONC(=O)Cc1ccc(CCCCc2ccccc2)cc1 [Compound 158] | < 500 | < 1000 | 4.5-5
COCC(=O)NCCCC[C@H](NC(=O)COC)C(=O)NCCC(=O)ONC(=O)Cc1ccc(CCCCc2ccccc2)cc1 [Compound 67] | < 500 | < 1000 | 4.5-5

Structure (SMILES) | solubility at 1 h [1] [µg/mL] | solubility at 1 h [2] [µg/mL] | pH at 1.00 mg/mL of MGCD290 in saline
COCCOCCOCCOCCOCCOCC(=O)N1CCC(OCC(=O)ONC(=O)Cc2ccc(CCCCc3ccccc3)cc2)CC1 [Compound 127] | < 500 | < 1000 | 4.5-5
CC(=O)NCCCC[C@H](NC(C)=O)C(=O)NCCC(=O)ONC(=O)Cc1ccc(CCCCc2ccccc2)cc1 [Compound 66] | < 500 | < 1000 | 4.5-5
Cl.O=C(Cc1ccc(CCCCc2ccccc2)cc1)NOC(=O)CC1CCNCC1 [Compound 114] | < 500 | < 1000 | 4-4.5
COCCOCCOCC(=O)NCCC[C@H](NC(=O)COCCOCCOC)C(=O)NCCC(=O)ONC(=O)Cc1ccc(CCCCc2ccccc2)cc1 [Compound 159] | < 500 | < 1000 | 4.5-5
Cl.O=C(Cc1ccc(CCCCc2ccccc2)cc1)NOC(=O)C1CCNCC1 [Compound 118, 2-(4-(4-phenylbutyl)phenyl)-N-(piperidine-4-carbonyloxy)acetamide hydrochloride] | < 500 | < 1000 | 4-4.5
NCCNCC(=O)NCCCC(=O)ONC(=O)Cc1ccc(CCCCc2ccccc2)cc1 [Compound 133, 2-(2-Aminoethylamino)-N-(4-oxo-4-(2-(4-(4-phenylbutyl)phenyl)acetamidooxy)butyl) acetamide dihydrochloride] | < 500 | < 1000 | 4.5-5
COCCOCCOCCOCCOCC(=O)NCC[C@H](NC(=O)COCCOCCOCCOCCOC)C(=O)NCCC(=O)ONC(=O)Cc1ccc(CCCCc2ccccc2)cc1 [Compound 149] | < 500 | < 1000 | 4.5-5
COC(=O)NCCCC[C@H](NC(=O)OC)C(=O)NCCC(=O)ONC(=O)Cc1ccc(CCCCc2ccccc2)cc1 [Compound 155] | < 500 | < 1000 | 4.5-5
COC(=O)NCC1(C(=O)ONC(=O)Cc2ccc(CCCCc3ccccc3)cc2)CC1 [Compound 53] | < 500 | < 1000 | 4.5-5
COCCOCC(=O)NCCCC[C@H](NC(=O)COCCOC)C(=O)NCC1(C(=O)ONC(=O)Cc2ccc(CCCCc3ccccc3)cc2)CC1 [Compound 161] | < 500 | < 1000 | 4.5-5
COCCOCCOCCOCCOCC(=O)NCCC(=O)ONC(=O)Cc1ccc(CCCCc2ccccc2)cc1 [Compound 61] | < 500 | < 1000 | 4.5-5
COCCOCCOCCOCC(=O)NCCCC[C@H](NC(=O)COCCOCCOCCOC)C(=O)NCCCC(=O)ONC(=O)Cc1ccc(CCCCc2ccccc2)cc1 [Compound 101] | – | > 1000 | 4.5-5
CC(=O)OCC(=O)NCCCC[C@H](NC(=O)COC(C)=O)C(=O)NCCC(=O)ONC(=O)Cc1ccc(CCCCc2ccccc2)cc1 [Compound 154] | < 500 | < 1000 | 4.5-5
COCCOCCOCC(=O)NCCN(CC(=O)NCCC(=O)ONC(=O)Cc1ccc(CCCCc2ccccc2)cc1)C(=O)COCCOCCOC [Compound 136] | < 500 | < 1000 | 5.5-6
COCCOCCOCCOCCOCC(=O)N[C@@H](C)CC(=O)ONC(=O)Cc1ccc(CCCCc2ccccc2)cc1 [Compound 88] | < 500 | < 1000 | 4.5-5
COCCOCCOCC(=O)N1CCC(CC(=O)ONC(=O)Cc2ccc(CCCCc3ccccc3)cc2)CC1 [Compound 115] | < 500 | < 1000 | 4.5-5
COCCOCCOCC(=O)N1CCC(C(=O)ONC(=O)Cc2ccc(CCCCc3ccccc3)cc2)CC1 [Compound 119] | < 500 | < 1000 | 4.5-5
COCCOCCOCC(=O)NCCN(CC(=O)NCCCC(=O)ONC(=O)Cc1ccc(CCCCc2ccccc2)cc1)C(=O)COCCOCCOC [Compound 134, 2-(2-(2-Methoxyethoxyl)ethoxy)-N-(2-oxo-2-(4-oxo-4-(2-(4-(4-phenylbutyl)phenyl)acetamidooxy)butylamino)ethyl)-N-(10-oxo-2,5,8-trioxa-11-azatridecan-13-yl)acetamide] | – | > 1000 | 5.5-6
